Assay results as given in EP4342885A1, “N-(3-(AMINOMETHYL)-PHENYL)-5-(4-PHENYL)-5-(TRIFLUOROMETHYL)-4,5-DIHYDROISOXAZOL-3-AMINE DERIVATIVES AND SIMILAR COMPOUNDS AS PESTICIDES” (priority 2022, dated 2024).

Legend:
Format in all cases: in vivo
Plutella xylostella = assay: Diamond back moth (Plutella xylostella) control, 96-well microtiter plate insect diet with eggs; details: 120 h, read-out: mortality in comparison with untreated controls
Description: For evaluating control of […] (Plutella xylostella) the test unit consisted of 96-well-microtiter plates containing an insect diet and 15-25 P. xylostella eggs.
The compounds or mixtures were formulated using a solution containing 75% water and 25% DMSO. Different concentrations of formulated compounds or mixtures were sprayed onto the insect diet at 5µl, using a custom-built micro atomizer, at two replications.
After application, microtiter plates were incubated at 28 ± 1°C, 80 ± 5 % RH for 5 days. Egg and larval mortality was then visually assessed.

Anthonomus grandis = assay: Boll weevil (Anthonomus grandis) control, 96-well microtiter plate insect diet with eggs; details: 120 h, read-out: mortality in comparison with untreated controls
Description: For evaluating control of boll weevil, the test unit consisted of 96-well-microtiter plates containing an insect diet and 5-10 A. grandis eggs.
The compounds were formulated using a solution containing 75% v/v water and 25% v/v DMSO. Different concentrations of formulated compounds were sprayed onto the insect diet at 5µl, using a custom-built micro atomizer, at two replications.
After application, microtiter plates were incubated at about 25 ± 1°C and about 75 ± 5 % relative humidity for 5 days. Egg and larval mortality were then visually assessed.

Aedes aegypti = assay: whole plant or invertebrate; details: 48 h, larval mortality, 2 days, read-out: mortality in comparison with untreated controls
Description: For evaluating control of Yellow Fever Mosquito, the test unit consisted of 96-well-microtiter plates containing 200µl of tap water per well and 5-15 freshly hatched A. aegypti larvae. The active compounds were formulated using a solution containing 75% (v/v) water and 25% (v/v) DMSO. Different concentrations of formulated compounds or mixtures were sprayed onto the insect diet at 2.5µl, using a custom-built micro atomizer, at two replications.
After application, microtiter plates were incubated at 28 ± 1°C, 80 ± 5 % RH for 2 days. Larval mortality was then visually assessed.

Heliothis virescens = assay: Tobacco budworm (Heliothis virescens) control, 96-well microtiter plate insect diet with eggs; details: 120 h, read-out: mortality in comparison with untreated controls
Description: For evaluating control of Tobacco Budworm, the test unit consisted of 96-well-microtiter plates containing an insect diet and 15-25 H. virescens eggs. The compounds were formulated using a solution containing 75% v/v water and 25% v/v DMSO. Different concentrations of formulated compounds were sprayed onto the insect diet at 10µl, using a custom-built micro atomizer, at two replications. After application, microtiter plates were incubated at about 28 ± 1°C and about 80 ± 5 % relative humidity for 5 days. Egg and larval mortality was then visually assessed.

Myzus persicae = assay: Green peach aphid (Myzus persicae), mixed life stages, systemic test via artificial diet under membrane; details: 72 h, read-out: mortality in comparison with untreated controls
Description: For evaluating control of Green Peach Aphid through systemic means the test unit consisted of 96-well-microtiter plates containing liquid artificial diet under an artificial membrane. The compounds were formulated using a solution containing 75% v/v water and 25% v/v DMSO. Different concentrations of formulated compounds were pipetted into the aphid diet, using a custom-built pipette, at two replications. After application, 5 - 8 adult aphids were placed on the artificial membrane inside the microtiter plate wells. The aphids were then allowed to suck on the treated aphid diet and incubated at about 23 ± 1°C and about 50 ± 5 % relative humidity for 3 days. Aphid mortality and fecundity was then visually assessed.

Measured: mortality at 800 ppm

Cc1ccc(NC2=NOC(c3cc(Cl)c(F)c(Cl)c3)(C(F)(F)F)C2)cc1CNC(=O)C1CC1 (stereo not drawn) [I-20]
≥ 75%: all assays above

O=C(NCc1cc(NC2=NOC(c3cc(Cl)c(F)c(Cl)c3)(C(F)(F)F)C2)ccc1OC(F)(F)F)C1CC1 (stereo not drawn) [I-18]
≥ 75%: all assays above

O=C(NCc1cc(NC2=NOC(c3cc(Cl)cc(Cl)c3)(C(F)(F)Cl)C2)ccc1F)C1CC1 (stereo not drawn) [I-43]
≥ 75%: all assays above

CCOC(=O)N(C1=NOC(c2cc(Cl)c(F)c(Cl)c2)(C(F)(F)F)C1)c1ccc(F)c(CNC(=O)C2CC2)c1 (stereo not drawn) [I-42]
≥ 75%: all assays above

O=C(NCc1cc(NC2=NOC(c3ccc(F)c(Cl)c3)(C(F)(F)F)C2)ccc1Cl)C1CCC1 (stereo not drawn) [I-23]
≥ 75%: all assays above

CCS(=O)(=O)NCc1cc(NC2=NOC(c3cc(Cl)cc(Cl)c3)(C(F)(F)F)C2)ccc1F (stereo not drawn) [I-13]
≥ 75%: all assays above
